Measured values: US20230151371A1, “POLYPEPTIDES HAVING EPOXY GROUP-REMOVING CATALYTIC ACTIVITY, NUCLEIC ACIDS ENCODING THE POLYPEPTIDES AND USE THEREOF” (priority 2020, published 2023)
Read-outs that look alike come from different tables or passages of the source.

How the values were obtained:
[1] = test system: pancreatic cancer cell line (PATU8988)
[2] = test system: human embryonic kidney cell 293-derived line (293T)
[3] = test system: normal human esophageal epithelial cells (HEECs)

Measured: cell viability (CCK-8, OD450)

fusarenon-X [FUS-X]
decreased sharply: [1] | [2] | [3]; HEEC, 48 h treatment

3-acetyl-deoxynivalenol [3-ADON]
decreased sharply: [1]; PATU8988, 48 h treatment | [2]; 293T, 48 h treatment | [3]; HEEC, 48 h treatment

HT-2 toxin
decreased sharply: [1] | [2] | [3]

15-acetyl-deoxynivalenol [15-ADON]
decreased sharply: [1]; PATU8988, 48 h treatment | [2]; 293T, 48 h treatment | [3]; HEEC, 48 h treatment

deoxynivalenol [DON]
decreased sharply: [1]; PATU8988, 48 h treatment | [2]; 293T, 48 h treatment | [3]; HEEC, 48 h treatment
